# Experimental data reported in PMC10866072, “Design, synthesis, molecular modelling and biological evaluation of novel 6-amino-5-cyano-2-thiopyrimidine derivatives as potent anticancer agents against leukemia and apoptotic inducers” (Journal of Enzyme Inhibition and Medicinal Chemistry, 2024).
# Key:
# SK-OV-3 = type: cell-based; conditions: Homo sapiens, one dose 10^-5 M, 48 h
# KM12 = type: cell-based; conditions: Homo sapiens, one dose 10^-5 M, 48 h
# PC-3 = type: cell-based; conditions: Homo sapiens, one dose 10^-5 M, 48 h
# MOLT-4 = type: cell-based; conditions: Homo sapiens, one dose 10^-5 M, 48 h, read-out: % growth
# SF-539 = type: cell-based; conditions: Homo sapiens, one dose 10^-5 M, 48 h
# NCI-H460 = type: cell-based; conditions: Homo sapiens, one dose 10^-5 M, 48 h, read-out: % growth
# SK-MEL-2 = type: cell-based; conditions: Homo sapiens, one dose 10^-5 M, 48 h
# OVCAR-8 = type: cell-based; conditions: Homo sapiens, one dose 10^-5 M, 48 h
# HT29 = type: cell-based; conditions: Homo sapiens, HT-29, one dose 10^-5 M, 48 h
# ACHN = type: cell-based; conditions: Homo sapiens, one dose 10^-5 M, 48 h
# M14 = type: cell-based; conditions: Homo sapiens, one dose 10^-5 M, 48 h
# MDA-MB-231/ATCC = type: cell-based; conditions: Homo sapiens, one dose 10^-5 M, 48 h
# [1] = test system: full NCI 60 cell lines panel
# CAKI-1 = type: cell-based; conditions: Homo sapiens, CAKI-1, 48 h, one dose 10^-5 M, 48 h
# SR = type: cell-based; conditions: Homo sapiens, one dose 10^-5 M, 48 h
# HL-60(TB) = type: cell-based; conditions: Homo sapiens, one dose 10^-5 M, 48 h
# HOP-62 = type: cell-based; conditions: Homo sapiens, one dose 10^-5 M, 48 h
# MDA-MB-435 = type: cell-based; conditions: Homo sapiens, one dose 10^-5 M, 48 h, read-out: % growth
# NCI-H226 = type: cell-based; conditions: Homo sapiens, one dose 10^-5 M, 48 h
# MCF7 = type: cell-based; conditions: Homo sapiens, one dose 10^-5 M, 48 h, read-out: % growth
# SF-295 = type: cell-based; conditions: Homo sapiens, one dose 10^-5 M, 48 h
# RPMI-8226 = type: cell-based; conditions: Homo sapiens, one dose 10^-5 M, 48 h
# HOP-92 = type: cell-based; conditions: Homo sapiens, one dose 10^-5 M, 48 h
# NCI-H23 = type: cell-based; conditions: Homo sapiens, one dose 10^-5 M, 48 h, read-out: % growth
# HCC-2998 = type: cell-based; conditions: Homo sapiens, one dose 10^-5 M, 48 h
# UACC-62 = type: cell-based; conditions: Homo sapiens, one dose 10^-5 M, 48 h
# RXF 393 = type: cell-based; conditions: Homo sapiens, RXF 393, 48 h, one dose 10^-5 M, 48 h, read-out: % growth
# SK-MEL-28 = type: cell-based; conditions: Homo sapiens, one dose 10^-5 M, 48 h
# 786-0 = type: cell-based; conditions: Homo sapiens, one dose 10^-5 M, 48 h
# U251 = type: cell-based; conditions: Homo sapiens, U-251, one dose 10^-5 M, 48 h
# CCRF-CEM = type: cell-based; conditions: Homo sapiens, one dose 10^-5 M, 48 h
# IGROV1 = type: cell-based; conditions: Homo sapiens, IGROV-1, one dose 10^-5 M, 48 h, read-out: % growth
# MDA-MB-468 = type: cell-based; conditions: Homo sapiens, one dose 10^-5 M, 48 h
# T-47D = type: cell-based; conditions: Homo sapiens, T47D, one dose 10^-5 M, 48 h, read-out: % growth
# SF-268 = type: cell-based; conditions: Homo sapiens, one dose 10^-5 M, 48 h, read-out: % growth
# NCI-H522 = type: cell-based; conditions: Homo sapiens, one dose 10^-5 M, 48 h
# HS 578T = type: cell-based; conditions: Homo sapiens; one dose 10^-5 M, 48 h; HS 578T; read-out: % growth
# SNB-75 = type: cell-based; conditions: Homo sapiens, one dose 10^-5 M, 48 h
# OVCAR-3 = type: cell-based; conditions: Homo sapiens, one dose 10^-5 M, 48 h
# OVCAR-4 = type: cell-based; conditions: Homo sapiens, one dose 10^-5 M, 48 h
# MALME-3M = type: cell-based; conditions: Homo sapiens, one dose 10^-5 M, 48 h
# SK-MEL-5 = type: cell-based; conditions: Homo sapiens, one dose 10^-5 M, 48 h, read-out: % growth
# UO-31 = type: cell-based; conditions: Homo sapiens, UO-31, 48 h, one dose 10^-5 M, 48 h
# DU-145 = type: cell-based; conditions: Homo sapiens, one dose 10^-5 M, 48 h
# UACC-257 = type: cell-based; conditions: Homo sapiens, one dose 10^-5 M, 48 h
# TK-10 = type: cell-based; conditions: Homo sapiens, one dose 10^-5 M, 48 h
# A498 = type: cell-based; conditions: Homo sapiens, one dose 10^-5 M, 48 h
# EKVX = type: cell-based; conditions: Homo sapiens, one dose 10^-5 M, 48 h
# SNB-19 = type: cell-based; conditions: Homo sapiens, one dose 10^-5 M, 48 h, read-out: % growth
# LOX IMVI = type: cell-based; conditions: Homo sapiens, one dose 10^-5 M, 48 h, read-out: % growth
# SN12C = type: cell-based, human; conditions: Homo sapiens, one dose 10^-5 M, 48 h
# OVCAR-5 = type: cell-based; conditions: Homo sapiens, one dose 10^-5 M, 48 h
# K-562 = type: cell-based; conditions: Homo sapiens, K562, one dose 10^-5 M, 48 h
# HCT-116 = type: cell-based; conditions: Homo sapiens, one dose 10^-5 M, 48 h, read-out: % growth
# SW-620 = type: cell-based; conditions: Homo sapiens, one dose 10^-5 M, 48 h
# A549/ATCC = type: cell-based; conditions: Homo sapiens, one dose 10^-5 M, 48 h
# HCT-15 = type: cell-based; conditions: Homo sapiens, one dose 10^-5 M, 48 h, read-out: % growth
smiles,measurement,setting,value
"N=C(NN=Cc1ccc(Cl)cc1)c1c(N)nc(S)nc1-c1ccc(Cl)cc1 [Compound 4h, 4-amino-6–(4-chlorophenyl)-N'-[(4-chlorophenyl)methylene]-2-mercapto pyrimidine-5-carboximidohydrazide]",% growth at 10 µM,SK-OV-3,77.5%
same,% growth at 10 µM,KM12,91.9%
same,percent cell growth at 10 µM,PC-3,79.6%
same,activity at 10 µM,MOLT-4,85.8%
same,% growth at 10 µM,SF-539,80.4%
same,activity at 10 µM,NCI-H460,93.7%
same,% growth at 10 µM,SK-MEL-2,101%
same,% growth of cells at 10 µM,OVCAR-8,94.8%
same,% growth at 10 µM,HT29,99%
same,% growth at 10 µM,ACHN,77.2%
same,% growth at 10 µM,M14,104%
same,% growth at 10 µM,MDA-MB-231/ATCC,69.7%
same,activity at 10 µM,"[1]; Homo sapiens, 60 cell, 48 h, read-out: Mean % growth",91%
same,activity on all 60 cancer cell lines tested (in words),[1]; one dose,weak activity
same,% growth at 10 µM,CAKI-1,79.4%
same,percent cell growth at 10 µM,SR,86.8%
same,% growth at 10 µM,HL-60(TB),101%
same,% growth at 10 µM,HOP-62,95.6%
same,activity at 10 µM,MDA-MB-435,98.8%
same,% growth at 10 µM,NCI-H226,99%
same,activity at 10 µM,MCF7,76.6%
same,% cell growth at 10 µM,SF-295,90.2%
same,% growth at 10 µM,RPMI-8226,83.8%
same,% growth at 10 µM,HOP-92,84.2%
same,activity at 10 µM,NCI-H23,93.7%
same,% growth at 10 µM,HCC-2998,103%
same,% growth at 10 µM,UACC-62,81.8%
same,activity at 10 µM,RXF 393,103%
same,% cell growth at 10 µM,SK-MEL-28,100%
same,% growth at 10 µM,786-0,98.5%
same,% growth at 10 µM,U251,94%
same,% cell growth at 10 µM,CCRF-CEM,75.5%
same,activity at 10 µM,IGROV1,78.8%
same,percent cell growth at 10 µM,MDA-MB-468,99.3%
same,activity at 10 µM,T-47D,72.1%
same,activity at 10 µM,SF-268,96%
same,% growth at 10 µM,NCI-H522,85.4%
same,activity at 10 µM,HS 578T,93%
same,% growth at 10 µM,SNB-75,83.5%
same,% growth at 10 µM,OVCAR-3,107%
same,% growth at 10 µM,OVCAR-4,83.1%
same,% growth at 10 µM,MALME-3M,107%
same,activity at 10 µM,SK-MEL-5,97.3%
same,% cell growth at 10 µM,UO-31,66.3%
same,% growth at 10 µM,DU-145,108%
same,percent cell growth at 10 µM,UACC-257,101%
same,% cell growth at 10 µM,TK-10,122%
same,% growth at 10 µM,A498,102%
same,% cell growth at 10 µM,EKVX,75%
same,activity at 10 µM,SNB-19,87.5%
same,activity at 10 µM,LOX IMVI,94.3%
same,% growth at 10 µM,SN12C,91.8%
same,percent cell growth at 10 µM,OVCAR-5,95.4%
same,% growth at 10 µM,K-562,86%
same,activity at 10 µM,HCT-116,86%
same,% growth at 10 µM,SW-620,103%
same,% growth at 10 µM,A549/ATCC,93.1%
same,activity at 10 µM,HCT-15,90.4%
